From ChEMBL document CHEMBL1765052, “Developing potent human uric acid transporter 1 (hURAT1) inhibitors” (J Med Chem, 2011)

How the values were obtained:
[1] = target: T1, Solute carrier family 22 member 12 (Homo sapiens, UniProt Q96S37); assay: Inhibition of human URAT1 expressed in xenopus oocyte assessed as inhibition of [14C]-labelled urate uptake at 50 uM after 60 mins by liquid scintillation counting; settings: 1 h
T1 sequence (Q96S37 whole entry): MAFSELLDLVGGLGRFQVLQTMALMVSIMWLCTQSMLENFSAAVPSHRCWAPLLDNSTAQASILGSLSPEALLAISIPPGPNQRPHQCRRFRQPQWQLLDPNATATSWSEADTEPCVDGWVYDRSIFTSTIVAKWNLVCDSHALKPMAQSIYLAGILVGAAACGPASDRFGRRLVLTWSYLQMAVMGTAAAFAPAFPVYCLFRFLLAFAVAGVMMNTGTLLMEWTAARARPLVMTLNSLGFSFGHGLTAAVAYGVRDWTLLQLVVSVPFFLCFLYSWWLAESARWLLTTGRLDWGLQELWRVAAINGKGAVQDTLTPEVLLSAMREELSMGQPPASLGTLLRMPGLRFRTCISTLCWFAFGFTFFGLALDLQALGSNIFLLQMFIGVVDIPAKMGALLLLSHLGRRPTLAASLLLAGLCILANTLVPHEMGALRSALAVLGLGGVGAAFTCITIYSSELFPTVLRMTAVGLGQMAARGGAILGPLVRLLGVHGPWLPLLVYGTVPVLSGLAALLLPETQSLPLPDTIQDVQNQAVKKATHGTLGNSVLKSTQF

[2] = target: T1, Solute carrier family 22 member 12; assay: Inhibition of human URAT1 expressed in xenopus oocyte assessed as inhibition of [14C]-labelled urate uptake after 60 mins by liquid scintillation counting

Which inhibition at 50 µM [1] does the source give for `CCc1oc2cc(O)ccc2c1C(=O)c1cc(Br)c(O)c(Br)c1` here?
The inhibition at 50 µM was 99.8%.

`CCc1oc2ccccc2c1C(=O)c1ccc(OC)cc1` was tested. Which inhibition at 50 µM [1] did it give?
The inhibition at 50 µM was 13.3%.

`CCc1oc2ccc(OC)cc2c1C(=O)c1ccc(OC)cc1` was tested. Which inhibition at 50 µM [1] did it give?
The inhibition at 50 µM was 24.3%.

How did the inhibition at 50 µM [1] turn out when `CCc1cc2c(C(=O)c3ccc(OC)cc3)c(OC)ccc2o1` was run?
Its inhibition at 50 µM is 6.1%.

Which inhibition at 50 µM [1] does the source give for `CCc1cc2cc(OC)cc(C(=O)c3ccc(OC)cc3)c2o1` here?
The inhibition at 50 µM was 5.2%.

With `CCc1oc2cc(OC)ccc2c1C(=O)c1ccc(OC)cc1` as the compound, how does the inhibition at 50 µM [1] read?
Its inhibition at 50 µM is 6.2%.

`CCc1cc2c(C(=O)c3ccc(OC)cc3)cc(OC)cc2o1` was tested. Which inhibition at 50 µM [1] did it give?
Its inhibition at 50 µM is 1.5%.

How did the inhibition at 50 µM [1] turn out when `CCc1oc2c(OC)cccc2c1C(=O)c1ccc(OC)cc1` was run?
Its inhibition at 50 µM is 17.2%.

For `CCc1cc2c(C(=O)c3ccc(OC)cc3)ccc(OC)c2o1`, which inhibition at 50 µM [1] is on record?
The inhibition at 50 µM was 7.4%.

What does the source list for `CCc1oc2ccc(OC)cc2c1C(=O)c1ccc(O)cc1`?
IC50 [2]: 2460 nM; inhibition at 50 µM [1]: 92.7%

`CCc1oc2ccc(O)cc2c1C(=O)c1ccc(OC)cc1` was tested. Which inhibition at 50 µM [1] did it give?
Its inhibition at 50 µM is 12.9%.

Which IC50 [2] does the source give for `CCc1oc2ccc(O)cc2c1C(=O)c1ccc(O)cc1` here?
Its IC50 is 2490 nM.

What about the inhibition at 50 µM [1] of the same compound?
Its inhibition at 50 µM is 96.5%.

Which results are given for `CCc1cc2c(C(=O)c3ccc(O)cc3)c(OC)ccc2o1`?
IC50 [2]: 6680 nM; inhibition at 50 µM [1]: 88.2%

For `CCc1cc2c(C(=O)c3ccc(OC)cc3)c(O)ccc2o1`, which inhibition at 50 µM [1] is on record?
Its inhibition at 50 µM is 28.7%.

For `CCc1cc2c(C(=O)c3ccc(O)cc3)c(O)ccc2o1`, which inhibition at 50 µM [1] is on record?
The inhibition at 50 µM was 51.5%.

Which results are given for `CCc1cc2cc(OC)cc(C(=O)c3ccc(O)cc3)c2o1`?
IC50 [2]: 33700 nM; inhibition at 50 µM [1]: 60%

`CCc1cc2cc(O)cc(C(=O)c3ccc(OC)cc3)c2o1` was tested. Which inhibition at 50 µM [1] did it give?
The inhibition at 50 µM was 9.3%.

How did the inhibition at 50 µM [1] turn out when `CCc1cc2cc(O)cc(C(=O)c3ccc(O)cc3)c2o1` was run?
The inhibition at 50 µM was 41%.

How did the inhibition at 50 µM [1] turn out when `CCc1oc2cc(OC)ccc2c1C(=O)c1ccc(O)cc1` was run?
Its inhibition at 50 µM is 92.7%.

Which inhibition at 50 µM [1] does the source give for `CCc1oc2cc(O)ccc2c1C(=O)c1ccc(OC)cc1` here?
Its inhibition at 50 µM is 48.3%.

What does the source list for `CCc1oc2cc(O)ccc2c1C(=O)c1ccc(O)cc1`?
IC50 [2]: 1130 nM; inhibition at 50 µM [1]: 92.1%

With `CCc1cc2c(C(=O)c3ccc(O)cc3)cc(OC)cc2o1` as the compound, how does the IC50 [2] read?
The IC50 was 19700 nM.

And the inhibition at 50 µM [1]?
The inhibition at 50 µM was 62.4%.

How did the inhibition at 50 µM [1] turn out when `CCc1cc2c(C(=O)c3ccc(OC)cc3)cc(O)cc2o1` was run?
The inhibition at 50 µM was 12.4%.

Which inhibition at 50 µM [1] does the source give for `CCc1cc2c(C(=O)c3ccc(O)cc3)cc(O)cc2o1` here?
Its inhibition at 50 µM is 41%.

For `CCc1oc2c(O)cccc2c1C(=O)c1ccc(OC)cc1`, which inhibition at 50 µM [1] is on record?
Its inhibition at 50 µM is 18.2%.

With `CCc1cc2c(C(=O)c3ccc(OC)cc3)ccc(O)c2o1` as the compound, how does the inhibition at 50 µM [1] read?
The inhibition at 50 µM was 0.8%.

`CCc1cc2c(C(=O)c3ccc(O)cc3)ccc(O)c2o1` was tested. Which IC50 [2] did it give?
The IC50 was 3940 nM.

And the inhibition at 50 µM [1]?
The inhibition at 50 µM was 93.8%.

`CCc1oc2ccc(OC)cc2c1C(=O)c1cc(Br)c(O)c(Br)c1` was tested. Which inhibition at 50 µM [1] did it give?
Its inhibition at 50 µM is 99.9%.

Which IC50 [2] does the source give for `CCc1oc2ccc(O)cc2c1C(=O)c1cc(Br)c(O)c(Br)c1` here?
Its IC50 is 189 nM.

And the inhibition at 50 µM [1]?
The inhibition at 50 µM was 99.9%.

`CCc1cc2c(C(=O)c3cc(Br)c(O)c(Br)c3)c(OC)ccc2o1` was tested. Which IC50 [2] did it give?
The IC50 was 358 nM.

What about the inhibition at 50 µM [1] of the same compound?
The inhibition at 50 µM was 99.6%.

For `CCc1cc2c(C(=O)c3cc(Br)c(O)c(Br)c3)c(O)ccc2o1`, which IC50 [2] is on record?
Its IC50 is 83 nM.

And the inhibition at 50 µM [1]?
The inhibition at 50 µM was 99.9%.

Which inhibition at 50 µM [1] does the source give for `CCc1cc2cc(OC)cc(C(=O)c3cc(Br)c(O)c(Br)c3)c2o1` here?
The inhibition at 50 µM was 99%.

Which inhibition at 50 µM [1] does the source give for `CCc1cc2cc(O)cc(C(=O)c3cc(Br)c(O)c(Br)c3)c2o1` here?
The inhibition at 50 µM was 99.8%.

How did the inhibition at 50 µM [1] turn out when `CCc1oc2cc(OC)ccc2c1C(=O)c1cc(Br)c(O)c(Br)c1` was run?
Its inhibition at 50 µM is 99.9%.

`CCc1cc2c(C(=O)c3cc(Br)c(O)c(Br)c3)cc(Br)c(O)c2o1` was tested. Which IC50 [2] did it give?
The IC50 was 177 nM.

What about the inhibition at 50 µM [1] of the same compound?
Its inhibition at 50 µM is 99.9%.

For `CCc1oc2cc(Br)c(O)c(Br)c2c1C(=O)c1ccc(OC)cc1`, which IC50 [2] is on record?
Its IC50 is 23500 nM.

And the inhibition at 50 µM [1]?
Its inhibition at 50 µM is 76.5%.

For `CCc1oc2c(Br)c(O)c(Br)cc2c1C(=O)c1ccc(OC)cc1`, which IC50 [2] is on record?
Its IC50 is 667 nM.

What about the inhibition at 50 µM [1] of the same compound?
The inhibition at 50 µM was 99.8%.

With `CCc1cc2c(C(=O)c3ccc(OC)cc3)cc(Br)c(O)c2o1` as the compound, how does the IC50 [2] read?
The IC50 was 772 nM.

What about the inhibition at 50 µM [1] of the same compound?
The inhibition at 50 µM was 99.3%.

For `CCc1oc2ccccc2c1C(=O)c1ccc(O)cc1` [BENZARONE], which inhibition at 50 µM [1] is on record?
Its inhibition at 50 µM is 90.8%.

Which inhibition at 50 µM [1] does the source give for `CCc1oc2ccccc2c1C(=O)c1cc(Br)c(O)c(Br)c1` [BENZBROMARONE] here?
Its inhibition at 50 µM is 99.9%.

`CCCN(CCC)S(=O)(=O)c1ccc(C(=O)O)cc1` [PROBENECID] was tested. Which inhibition at 50 µM [1] did it give?
Its inhibition at 50 µM is 35.7%.
